Data on 16 molecules can be found in US20250353859A1, “COMPOUNDS AS CCR6 INHIBITORS” (Hoffmann-La Roche Inc., priority 2023, published 2025).

Holding throughout (type): cell-based
Assay [1] has as its target T1, human CCR6 (Homo sapiens, UniProt P51684).
T1 sequence (P51684 1-374): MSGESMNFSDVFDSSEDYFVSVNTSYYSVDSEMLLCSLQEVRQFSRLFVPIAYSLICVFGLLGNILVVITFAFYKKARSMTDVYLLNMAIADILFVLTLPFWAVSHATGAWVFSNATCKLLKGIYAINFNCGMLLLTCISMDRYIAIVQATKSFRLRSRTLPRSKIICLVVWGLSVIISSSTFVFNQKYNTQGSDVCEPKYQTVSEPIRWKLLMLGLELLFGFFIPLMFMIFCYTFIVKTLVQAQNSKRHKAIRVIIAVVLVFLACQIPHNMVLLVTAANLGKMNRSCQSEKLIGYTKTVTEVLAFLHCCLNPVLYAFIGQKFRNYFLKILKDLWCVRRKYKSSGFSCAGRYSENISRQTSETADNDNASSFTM
The assay can be described thus: Human CCR6-CRE reporter assay. The arrangement: The second construct contained the open reading frame of human CCR6 in the pUNO1 backbone; host or cells: 293FT cells (transient transfection with TransIT-293). On the procedure: 293FT cells were transfected with 2 constructs using TransIT-293 (Mirus). The first construct (pGL4.29, Promega) expressed the luciferase reporter gene luc2P in response to the binding of cAMP-induced CREB to the CREelement in its promoter. The second construct contained the open reading frame of human CCR6 in the pUNO1 backbone under the control of an enhanced CMV promoter(InVivoGen).48 h after transfection, cells were harvested and diluted to 750,000 cells/ml in culture medium (DMEM, 10% FBS, 1× pen/strep(Gibco 15140)). Compounds were 2.5-fold serially diluted in DMSO. Further dilutions were made in assay medium (DMEM, 10% FBS, 1× pen/strep, 6 μM Forskolin, 6 nM CCL20). 4 μl of the compound solution was added to a white MW384 plate, followed by […] of the cell suspension. Final DMSO concentration in the assay was 0.1%. The MW384 plate was placed in an incubator at 37° C., 5% CO2 for 5 h. Luciferase activity was determined by addition of 24 μl of a 2.5× diluted BriteLite luciferase solution(Perkin Elmer), followed by luminescence measurement using a VICTOR Plate reader (Perkin Elmer). […] The relative Log IC50 was determined with GraphPad Prism 9 using a four-parameter dose-response model.

The next assay concerns Human CD4+ T cells. Description: CD4+ T cells chemotaxis assay towards CCL20. As to conditions: CD4+ T cell, 3 h. The text has this:
Human CD4+ T cells were isolated from buffy coats of healthy donors using aCD4+ T Cell Isolation Kit(Miltenyi Biotec 130-096-533). Isolated T cells were stimulated overnight with anti-CD3 and anti-CD28 antibodies (Biolegend 300314/302934) in growth medium (RPMI1640, 10% heat-inactivated FBS, 1× pen/strep (Gibco 15140)). For the chemotaxis assay, Corning Transwell plates were used with a pore size of 5 m (Corning 3388). T cells were counted and diluted to 6*10^6 cells/ml in chemotaxis medium (RPMI1640, 1% BSA, pen/strep). Compounds were four-fold serially diluted in DMSO. Further dilutions were made in chemotaxis medium. Cells were incubated with test compounds for 30 min at 37° C. prior to initiation of the assay (3*10^6 cells/ml). Final DMSO concentration in the assay was 0.2%. Wells of the Transwell plates were filled with 200 μl chemotaxis medium containing 150 ng/ml CCL20 (R&D systems 360-MP). 50 μl of the cell/compound suspension was added to the inserts of the Transwell plates (150,000 cells/insert). The Transwell plates were placed in an incubator at 37° C., 5% CO2 for 3 h. After 3 h, the number of migrated cells was quantified using CellTiter Glo (Promega). Percentage inhibition values were calculated based on the low and high signal obtained with 0.2% DMSO in chemotaxis medium without and with CCL20, respectively. The relative Log IC50 was determined with GraphPad Prism 9 using a four-parameter dose-response model.

The target in assay [2] is T1, human CCR6. The assay can be described thus: CHO-K1 CCR6 chemotaxis assay towards CCL20. The note with it: CHO-K1 cells overexpressing human CCR6; 100 ng/ml CCL20, 4 h; relative Log IC50. The text has this: Cells overexpressing human CCR6 were used in the chemotaxis assay (DiscoverX, cAMP Hunter™ CHO-K1 CCR6 Gi Cell Line). Growth medium of these cells consisted of DMEM/F12, non-essential Amino acids (1×NEAA, Gibco 11140050), 10% FBS and 1× pen/strep (Gibco 15140). For the chemotaxis assay, Corning Transwell plates were used with a pore size of 8 m (Corning 351164). Cells were harvested using trypsin and diluted to 4*10^6 cells/ml in chemotaxis medium (DMEM, 0.25% BSA, pen/strep). Compounds were four-fold serially diluted in DMSO. Further dilutions were made in chemotaxis medium. Cells were incubated with test compounds for 30 min at 37° C. prior to initiation of the assay (2*10^6 cells/ml). Final DMSO concentration in the assay was 0.2%. Wells of the Transwell plates were filled with 200 μl chemotaxis medium containing 100 ng/ml CCL20 (R&D systems 360-MP). 50 μl of the cell/compound suspension was added to the inserts of the Transwell plates (100,000 cells/insert). The Transwell plates were placed in an incubator at 37° C., 5% CO2 for 4 h. After 4 h, the number of migrated cells was quantified using CellTiter Glo (Promega). Percentage inhibition values were calculated based on the low and high signal obtained with 0.2% DMSO in chemotaxis medium without and with CCL20, respectively. The relative Log IC50 was determined with GraphPad Prism 9 using a four-parameter dose-response model.

The mark [3] stands for this setting: 293FT cells transfected with human CCR6 and CRE-luciferase, Forskolin + CCL20, 5 h, relative Log IC50, read-out: CCR6-CRE reporter (converted).

SMILES strings stand for the structures.

In the case of `N#Cc1ccc(-c2ccc(S(=O)(=O)N3CCC(Nc4ccc(OC(F)(F)F)cc4)CC3)cc2)cc1` [Example 1, 4′-[(4-{[4-(trifluoromethoxy)phenyl]Amino}piperidin-1-yl)sulfonyl]-[1,1′-biphenyl]-4-carbonitrile], the IC50 at human CCR6 [1] (setting [3]) was 39.8 nM; in the assay with Human CD4+ T cells, 50.1 nM.

`CNC(=O)c1cccc(-c2ccc(S(=O)(=O)N3CCC(Nc4ccc(OC(F)(F)F)cc4)CC3)cc2)c1` [Example 4, N-methyl-4′-[(4-{[4-(trifluoromethoxy)phenyl]Amino}piperidin-1-yl)sulfonyl]-[1,1′-biphenyl]-3-carboxamide]: the IC50 at human CCR6 [1] (setting [3]) is 100 nM; in the assay with Human CD4+ T cells it was 20 nM.

`Cc1n[nH]c2ccc(-c3ccc(S(=O)(=O)N4CCC(Nc5ccc(OC(F)(F)F)cc5)CC4)cc3)cc12` [Example 6, 1-[4-(3-methyl-1H-indazol-5-yl)benzenesulfonyl]-N-[4-(trifluoromethoxy)phenyl]piperidin-4-amine]: the IC50 on human CCR6 [1] (setting [3]) was 126 nM; with Human CD4+ T cells, 50.1 nM.

Regarding `N#Cc1c[nH]c2ccc(-c3ccc(S(=O)(=O)N4CCC(Nc5ccc(OC(F)(F)F)cc5)CC4)cc3)cc12` [Example 13, 5-{4-[(4-{[4-(trifluoromethoxy)phenyl]Amino}piperidin-1-yl)sulfonyl]phenyl}-1H-indole-3-carbonitrile], the IC50 on human CCR6 [1] (setting [3]) was 79.4 nM; in the assay on Human CD4+ T cells it was 10 nM.

On to `N#Cc1c[nH]c2ccc(-c3ccc(S(=O)(=O)[C@H]4CC[C@H](Nc5ccc(SC(F)(F)F)cc5)CC4)cc3)cc12` [Example 44, 5-(4-{[trans-4-({4-[(trifluoromethyl)sulfanyl]phenyl}Amino)cyclohexyl]sulfonyl}phenyl)-1H-indole-3-carbonitrile], for which the IC50 at human CCR6 [2] is 6.31 nM; on human CCR6 [1] (setting [3]) it was 20 nM.

`O=S(=O)(c1ccc(-c2ccc3nccn3c2)cc1)[C@H]1CC[C@H](Nc2cccc(SC(F)(F)F)c2)CC1` [Example 46, N-[trans-4-(4-{imidazo[1,2-a]pyridin-6-yl}benzenesulfonyl)cyclohexyl]-3-[(trifluoromethyl)sulfanyl]aniline]: the IC50 against human CCR6 [2] is 794 nM; on human CCR6 [1] (setting [3]), 63.1 nM.

Regarding `CC(C)c1cnc2ccc(-c3ccc(S(=N)(=O)[C@H]4CC[C@H](Nc5ccc(SC(F)(F)F)cc5)CC4)cc3)cn12` (stereo partly drawn) [Example 51, {4-[3-(propan-2-yl)imidazo[1,2-a]pyridin-6-yl]phenyl}[trans-4-({4-[(trifluoromethyl)sulfanyl]phenyl}Amino)cyclohexyl](imino)-λ^6-sulfanone], the IC50 was 794 nM against human CCR6 [2] and 79.4 nM at human CCR6 [1] (setting [3]).

Consider `Cc1cc(-c2ccc(S(=O)(=O)N3CCC(Nc4ccc(OC(F)(F)F)cn4)CC3)cc2)cn2c(C(C)C)cnc12` [Example 55, N-(1-{4-[8-methyl-3-(propan-2-yl)imidazo[1,2-a]pyridin-6-yl]benzenesulfonyl}piperidin-4-yl)-5-(trifluoromethoxy)pyridin-2-amine], for which the values for the IC50 against human CCR6 [2] and on human CCR6 [1] (setting [3]) were 2 nM and 79.4 nM, respectively.

Consider `Cc1cc(-c2ccc(S(=O)(=O)N3CCC(Nc4ccc(OC(F)(F)F)cn4)CC3)cc2)cn2c(C(C)C)nnc12` [Example 57, N-(1-{4-[8-methyl-3-(propan-2-yl)-[1,2,4]triazolo[4,3-a]pyridin-6-yl]benzenesulfonyl}piperidin-4-yl)-5-(trifluoromethoxy)pyridin-2-amine], for which the IC50 at human CCR6 [2] was 7.94 nM; at human CCR6 [1] (setting [3]), 39.8 nM.

`CC(C)c1nnc2cnc(-c3ccc(S(=O)(=O)N4CCC(Nc5ccc(OC(F)(F)F)cn5)CC4)cc3)cn12` [Example 59, N-(1-{4-[3-(propan-2-yl)-[1,2,4]triazolo[4,3-a]pyrazin-6-yl]benzenesulfonyl}piperidin-4-yl)-5-(trifluoromethoxy)pyridin-2-amine]: the IC50 was 7.94 nM at human CCR6 [2] and 63.1 nM on human CCR6 [1] (setting [3]).

For the molecule `NC(=O)c1cc(-c2ccc(S(=O)(=O)N3CCC(Nc4ccc(SC(F)(F)F)cn4)CC3)cc2)ccn1` [Example 63, 4-(4-{[4-({5-[(trifluoromethyl)sulfanyl]pyridin-2-yl}amino)piperidin-1-yl]sulfonyl}phenyl)pyridine-2-carboxamide], the IC50 on human CCR6 [2] is 15.8 nM; on human CCR6 [1] (scaffold variant X = S, R1 = CF3, read-out: Activity in human CCR6-CRE reporter assay) it was 74 nM.

For the molecule `CC(C)c1nnc2ccc(-c3ccc(S(=O)(=O)N4CCC(Nc5ccc(SC(F)(F)F)cn5)CC4)cc3)cn12` [Example 65, N-(1-{4-[3-(propan-2-yl)-[1,2,4]triazolo[4,3-a]pyridin-6-yl]benzenesulfonyl}piperidin-4-yl)-5-[(trifluoromethyl)sulfanyl]pyridin-2-amine], the figures for the IC50 at human CCR6 [1] (setting [3]) and with Human CD4+ T cells were 25.1 nM and 5.01 nM, respectively.

On to `CC(C)c1nnc2cnc(-c3ccc(S(=O)(=O)N4CCC(Nc5ccc(SC(F)(F)F)cn5)CC4)cc3)cn12` [Example 66, N-(1-{4-[3-(propan-2-yl)-[1,2,4]triazolo[4,3-a]pyrazin-6-yl]benzenesulfonyl}piperidin-4-yl)-5-[(trifluoromethyl)sulfanyl]pyridin-2-amine], for which the IC50 was 31.6 nM on human CCR6 [1] (setting [3]) and 1.58 nM in the assay on Human CD4+ T cells.

Consider `Cc1nnc2ccc(-c3ccc(S(=O)(=O)N4CCC(Nc5ccc(SC(F)(F)F)cn5)CC4)cc3)cn12` [Example 67, N-[1-(4-{3-methyl-[1,2,4]triazolo[4,3-a]pyridin-6-yl}benzenesulfonyl)piperidin-4-yl]-5-[(trifluoromethyl)sulfanyl]pyridin-2-amine], for which the IC50 on human CCR6 [1] (setting [3]) is 39.8 nM; with Human CD4+ T cells, 12.6 nM.

Regarding `Cc1cc(-c2ccc(S(=O)(=O)N3CCC(Nc4ccc(SC(F)(F)F)cn4)CC3)cc2)cn2c(C(C)C)nnc12` [Example 68, N-(1-{4-[8-methyl-3-(propan-2-yl)-[1,2,4]triazolo[4,3-a]pyridin-6-yl]benzenesulfonyl}piperidin-4-yl)-5-[(trifluoromethyl)sulfanyl]pyridin-2-amine], the values for the IC50 at human CCR6 [1] (setting [3]) and in the assay with Human CD4+ T cells were 63.1 nM and 2 nM, respectively.

On to `Cc1n[nH]c2ncc(-c3ccc(S(=O)(=O)[C@H]4CC[C@H](Nc5ccc(SC(F)(F)F)cc5)CC4)cc3)cc12` [Example 72, N-[trans-4-(4-{3-methyl-1H-pyrazolo[3,4-b]pyridin-5-yl}benzenesulfonyl)cyclohexyl]-4-[(trifluoromethyl)sulfanyl]aniline], for which the results for the IC50 on human CCR6 [1] (setting [3]) and in the assay on Human CD4+ T cells were 39.8 nM and 3.98 nM, respectively.
